Source: ChEMBL document CHEMBL1201862, “PubChem BioAssay data set” (2004)
Activity calls are given as the source filed them.

How the values were obtained:
[1] = A549 cell cytotoxicity, dose response, cytotoxicity control, plate reader, cherry-pick, antagonist series (AID 743412); assay type: functional, cell-based
[2] = HepG2 cell cytotoxicity, dose response, cytotoxicity control, plate reader, cherry-pick, antagonist series (AID 743416); assay type: functional, cell-based
[3] = target: Genome polyprotein (dengue virus type 2, UniProt P29990); test: Dengue-2 NS5 methyltransferase inhibitors, primary screen, biochemical, confirmation dose response (AID 588689); assay type: functional
[4] = tested on: Vero; test: cells; assay type: functional; details: Chlorocebus sabaeus
[5] = cytotoxicity in HEK-293T cells, dose response, cytotoxicity control for TCR NF-kB inhibitor project, luminescence, T-cell screen hits (AID 489026); assay type: functional, cell-based;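 further: cells exposed to compound about 14 hours before the viability readout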
[6] = growth suppression of PTEN-null colon cells, dose response, cell-based, HCT116 PTEN knockout (AID 1047); assay type: functional;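 further: HCT116 colon tumor cells with PTEN knocked out; cells exposed to compound for 60 hours before readout; potency for loss of cell viability measured by luminescence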
[7] = growth suppression of beta-catenin-knockout colon cells, dose response, cell-based, HCT116, human colon tumor (AID 1045); assay type: functional;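 further: HCT116 colon tumor cells with beta catenin knocked out; cells exposed to compound for 60 hours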
[8] = HeLa cell cytotoxicity, dose response, cytotoxicity control for MgcRacGAP inhibitor project (AID 624300); assay type: functional
[9] = Luminescence Cell-Based Dose Response HTS to Identify Activators of Luciferase Translation or Activity in H4 […] Cells. [Related pubchem assays: 1829 (Project Summary), 1814 (Primary HTS)]; assay type: functional
[10] = target: Nonstructural protein 1 (Influenza A virus, UniProt Q194T2); assay type: functional, Influenza A virus (A/California/07/2009(H1N1))
[11] = tested on: H4; test: Luminescence Cell-Based Dose Response HTS to Identify Activators of 5'UTR Stem-Loop Driven Prion Protein mRNA Translation in H4 Neuroglioblastoma Cells. [Related pubchem assays: 1829 (Project Summary), 1814 (Primary HTS)]; assay type: functional; details: Homo sapiens
[12] = Luminescence Cell-Based Dose Confirmation HTS to Identify Activators of 5'UTR Stem-Loop Driven Alpha-Synuclein mRNA Translation in H4 Neuroglioblastoma Cells. [Related pubchem assays: 1829 (Project Summary), 1814 (Primary HTS)]; assay type: functional
[13] = target: Estrogen receptor beta (Homo sapiens, UniProt Q92731);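 further: recombinant ER-beta bound to coactivator SRC1 peptide in presence of estradiol agonist; inhibitors block coactivator peptide binding and lower the FRET signal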
[14] = MC4R antagonists, dose response, counter-screen for LGR2 antagonist project, cell-based, plate reader, cherry pick (AID 743444); assay type: functional;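 further: transfected HEK 293 cells stimulated with alpha-MSH peptide; potency of inhibitors of the alpha-MSH evoked signal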
[15] = inhibitors of SNCA 5'UTR-driven reporter translation, confirmation, H4 neuroglioma cells, luminescence (AID 1988); assay type: functional, cell-based
[16] = microbe, parasite or virus in culture; assay type: functional; details: Mycobacterium tuberculosis
[17] = LGR2 antagonists, dose response, cell-based, HEK293, CRE-luciferase reporter, cherry pick, set 2 (AID 743343); assay type: functional;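 further: transfected cells were stimulated with diluted bursicon conditioned medium after compound addition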
[18] = Luminescence Cell-Based Dose Response HTS to Identify Inhibitors of 5'UTR Stem-Loop Driven Prion Protein mRNA Translation in H4 Neuroglioblastoma Cells. [Related pubchem assays: 1827 (Project Summary), 1813 (Primary HTS)]; assay type: functional
[19] = target: T1, Carboxy-terminal domain RNA polymerase II polypeptide A small phosphatase 1 (Homo sapiens, UniProt Q9GZU7); test: inhibitors of CTDSP1, concentration-response testing, biochemical assay, absorbance-based, actives from ultra-high-throughput screening (AID 540297); assay type: functional
T1 sequence (Q9GZU7 whole entry): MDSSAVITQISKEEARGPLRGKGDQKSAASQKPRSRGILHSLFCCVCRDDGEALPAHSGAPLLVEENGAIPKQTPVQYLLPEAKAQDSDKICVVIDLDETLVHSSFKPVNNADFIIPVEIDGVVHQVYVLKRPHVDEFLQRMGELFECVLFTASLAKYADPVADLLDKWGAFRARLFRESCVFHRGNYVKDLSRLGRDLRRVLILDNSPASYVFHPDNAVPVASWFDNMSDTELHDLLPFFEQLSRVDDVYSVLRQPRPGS

[20] = cytotoxicity toward NIH3T3 fibroblasts, dose response, counter-screen, cell-based, ATP luminescence, mouse fibroblasts (AID 2010); assay type: functional;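 further: cells exposed to compound for about 90 hours before reading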
[21] = inhibitors of intracellular T. cruzi replication, confirmation, NIH3T3 host cells, beta-gal luminescence (AID 2044); assay type: functional, cell-based;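 further: intracellular parasites grown in NIH/3T3 mouse fibroblasts as host cells; luminescent beta-galactosidase reporter signal from transgenic T. cruzi replicating inside host cells; inhibitors lower the luminescence signal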
[22] = target: T2, High affinity choline transporter 1 (Homo sapiens, UniProt Q9GZV3); test: CHT inhibitors, dose response, cell-based, 5-point CRC, membrane potential dye (AID 504840); assay type: functional
T2 sequence (Q9GZV3 whole entry): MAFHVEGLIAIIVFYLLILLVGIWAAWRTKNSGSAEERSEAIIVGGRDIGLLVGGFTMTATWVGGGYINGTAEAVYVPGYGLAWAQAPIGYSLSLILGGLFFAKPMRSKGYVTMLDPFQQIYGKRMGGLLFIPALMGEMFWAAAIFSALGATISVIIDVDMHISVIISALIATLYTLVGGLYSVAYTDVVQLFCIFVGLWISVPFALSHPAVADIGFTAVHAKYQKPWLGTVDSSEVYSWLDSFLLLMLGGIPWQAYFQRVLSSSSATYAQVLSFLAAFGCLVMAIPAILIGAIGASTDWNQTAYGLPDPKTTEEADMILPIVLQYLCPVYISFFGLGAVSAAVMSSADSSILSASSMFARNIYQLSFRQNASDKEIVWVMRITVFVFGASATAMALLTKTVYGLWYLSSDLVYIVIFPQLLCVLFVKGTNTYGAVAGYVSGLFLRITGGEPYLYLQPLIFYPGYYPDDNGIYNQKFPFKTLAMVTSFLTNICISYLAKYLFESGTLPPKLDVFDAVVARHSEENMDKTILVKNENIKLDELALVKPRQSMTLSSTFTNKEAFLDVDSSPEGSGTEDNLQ

[23] = target: T3, Rac GTPase-activating protein 1 (Homo sapiens, UniProt Q9H0H5); test: MgcRacGAP GTPase-activating activity inhibitors, confirmation, biochemical, ADP Hunter fluorescence, primary and confirmatory (AID 624330); assay type: functional
T3 sequence (Q9H0H5 whole entry): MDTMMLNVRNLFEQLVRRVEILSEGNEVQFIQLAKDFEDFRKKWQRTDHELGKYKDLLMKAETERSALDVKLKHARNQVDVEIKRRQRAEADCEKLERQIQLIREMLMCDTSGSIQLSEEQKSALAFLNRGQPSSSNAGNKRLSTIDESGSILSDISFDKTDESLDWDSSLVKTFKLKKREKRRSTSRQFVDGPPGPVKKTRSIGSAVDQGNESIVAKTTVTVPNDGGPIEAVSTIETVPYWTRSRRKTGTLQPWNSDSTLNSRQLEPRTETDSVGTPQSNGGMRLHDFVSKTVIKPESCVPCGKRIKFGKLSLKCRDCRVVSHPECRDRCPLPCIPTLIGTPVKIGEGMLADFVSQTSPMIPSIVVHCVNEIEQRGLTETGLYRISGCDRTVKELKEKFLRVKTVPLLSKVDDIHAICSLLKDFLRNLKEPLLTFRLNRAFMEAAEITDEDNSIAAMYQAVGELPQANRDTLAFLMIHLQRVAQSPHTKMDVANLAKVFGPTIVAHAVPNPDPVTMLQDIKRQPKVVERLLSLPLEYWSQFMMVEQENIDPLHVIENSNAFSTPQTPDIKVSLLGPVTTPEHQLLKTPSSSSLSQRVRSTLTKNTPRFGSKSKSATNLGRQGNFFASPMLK

[24] = Luminescence Cell-Based Dose Retest to Confirm Inhibitors of Cancer Stem Cells. [Related pubchem assays (depositor defined):AID2717, AID2721]; assay type: functional; details: Homo sapiens
[25] = tested on: SN12K1; test: cells; assay type: functional; details: Homo sapiens
[26] = tested on: P388/ADR; test: cells; assay type: functional; details: Mus musculus
[27] = inhibitors of clade B AD8 Env fusion, dose response, cell-based, cherry-pick (AID 652062); assay type: functional;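 further: luciferase signal from cell-cell fusion driven by HIV-1 clade B AD8 Env; potency is for inhibitors of fusion seen as a drop in luminescence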
[28] = tested on: INS1; test: beta cell apoptosis inhibitors, cytokine rescue, dose response, luminescence, retest (AID 449756); assay type: functional, cell-based; details: Rattus norvegicus;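 further: cell death triggered by IL-1 beta plus TNF-alpha plus IFN-gamma mixture; protective hits raise ATP signal compared with cytokine alone wells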
[29] = cells; assay type: functional, cell-based
[30] = cells; assay type: functional, cell-based; remark: listed apart in the source
[31] = target: T4, Cytochrome P450 1A2 (Homo sapiens, UniProt P05177);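 further: PubChem cytochrome P450 panel assay, CYP1A2 panel member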
T4 sequence (P05177 whole entry): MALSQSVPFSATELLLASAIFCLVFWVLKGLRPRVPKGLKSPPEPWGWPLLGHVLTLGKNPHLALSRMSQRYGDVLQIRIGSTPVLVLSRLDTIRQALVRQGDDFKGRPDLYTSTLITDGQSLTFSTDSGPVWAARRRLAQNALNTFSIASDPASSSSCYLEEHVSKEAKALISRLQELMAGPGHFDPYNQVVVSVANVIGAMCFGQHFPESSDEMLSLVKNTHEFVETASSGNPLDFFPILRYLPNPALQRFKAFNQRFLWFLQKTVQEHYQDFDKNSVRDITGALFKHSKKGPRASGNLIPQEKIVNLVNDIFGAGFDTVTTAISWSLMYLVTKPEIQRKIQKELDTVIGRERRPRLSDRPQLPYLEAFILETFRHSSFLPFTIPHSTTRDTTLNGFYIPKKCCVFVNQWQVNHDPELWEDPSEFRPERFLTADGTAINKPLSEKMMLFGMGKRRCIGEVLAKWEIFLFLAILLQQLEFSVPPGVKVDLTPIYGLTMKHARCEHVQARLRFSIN

[32] = target: Cytochrome P450 2C19 (Homo sapiens, UniProt P33261); test: Cytochrome panel assay with activity outcomes. Panel member name: p450-cyp2c19 Compounds with AC50 equal or less than 10 uM are considered active; assay type: functional; details: read-out: AC50
Cytochrome P450 2C19, sequence (P33261 whole entry): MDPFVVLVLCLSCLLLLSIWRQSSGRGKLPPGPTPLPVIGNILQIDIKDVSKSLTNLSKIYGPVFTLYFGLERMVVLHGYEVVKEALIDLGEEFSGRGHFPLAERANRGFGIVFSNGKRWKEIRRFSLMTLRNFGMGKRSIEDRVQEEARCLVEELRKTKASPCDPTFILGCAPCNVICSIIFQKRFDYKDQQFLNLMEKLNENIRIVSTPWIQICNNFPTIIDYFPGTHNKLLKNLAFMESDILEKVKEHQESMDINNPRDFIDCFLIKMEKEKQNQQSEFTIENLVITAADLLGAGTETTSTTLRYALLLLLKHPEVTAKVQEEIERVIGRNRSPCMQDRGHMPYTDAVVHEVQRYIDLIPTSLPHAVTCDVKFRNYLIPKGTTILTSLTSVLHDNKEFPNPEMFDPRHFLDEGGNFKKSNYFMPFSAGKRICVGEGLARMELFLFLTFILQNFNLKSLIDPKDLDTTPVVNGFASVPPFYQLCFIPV

Estrogen receptor beta, sequence (Q92731 whole entry): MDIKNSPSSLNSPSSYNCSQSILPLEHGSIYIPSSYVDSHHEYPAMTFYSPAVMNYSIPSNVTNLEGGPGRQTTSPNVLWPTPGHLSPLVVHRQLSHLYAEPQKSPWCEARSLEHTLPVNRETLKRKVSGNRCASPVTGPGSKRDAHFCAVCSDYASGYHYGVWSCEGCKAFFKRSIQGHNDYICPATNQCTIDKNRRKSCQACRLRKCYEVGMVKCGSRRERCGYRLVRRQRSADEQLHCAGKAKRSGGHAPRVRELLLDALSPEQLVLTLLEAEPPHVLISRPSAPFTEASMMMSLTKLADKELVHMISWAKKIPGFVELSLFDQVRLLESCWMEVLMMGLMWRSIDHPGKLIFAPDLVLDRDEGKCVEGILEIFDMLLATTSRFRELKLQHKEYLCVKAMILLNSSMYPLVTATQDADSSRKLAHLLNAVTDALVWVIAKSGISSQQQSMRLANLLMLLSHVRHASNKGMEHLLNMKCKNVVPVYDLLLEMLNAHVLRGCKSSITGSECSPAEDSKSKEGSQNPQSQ
Genome polyprotein, sequence (P29990 2492-3391 limits assumed): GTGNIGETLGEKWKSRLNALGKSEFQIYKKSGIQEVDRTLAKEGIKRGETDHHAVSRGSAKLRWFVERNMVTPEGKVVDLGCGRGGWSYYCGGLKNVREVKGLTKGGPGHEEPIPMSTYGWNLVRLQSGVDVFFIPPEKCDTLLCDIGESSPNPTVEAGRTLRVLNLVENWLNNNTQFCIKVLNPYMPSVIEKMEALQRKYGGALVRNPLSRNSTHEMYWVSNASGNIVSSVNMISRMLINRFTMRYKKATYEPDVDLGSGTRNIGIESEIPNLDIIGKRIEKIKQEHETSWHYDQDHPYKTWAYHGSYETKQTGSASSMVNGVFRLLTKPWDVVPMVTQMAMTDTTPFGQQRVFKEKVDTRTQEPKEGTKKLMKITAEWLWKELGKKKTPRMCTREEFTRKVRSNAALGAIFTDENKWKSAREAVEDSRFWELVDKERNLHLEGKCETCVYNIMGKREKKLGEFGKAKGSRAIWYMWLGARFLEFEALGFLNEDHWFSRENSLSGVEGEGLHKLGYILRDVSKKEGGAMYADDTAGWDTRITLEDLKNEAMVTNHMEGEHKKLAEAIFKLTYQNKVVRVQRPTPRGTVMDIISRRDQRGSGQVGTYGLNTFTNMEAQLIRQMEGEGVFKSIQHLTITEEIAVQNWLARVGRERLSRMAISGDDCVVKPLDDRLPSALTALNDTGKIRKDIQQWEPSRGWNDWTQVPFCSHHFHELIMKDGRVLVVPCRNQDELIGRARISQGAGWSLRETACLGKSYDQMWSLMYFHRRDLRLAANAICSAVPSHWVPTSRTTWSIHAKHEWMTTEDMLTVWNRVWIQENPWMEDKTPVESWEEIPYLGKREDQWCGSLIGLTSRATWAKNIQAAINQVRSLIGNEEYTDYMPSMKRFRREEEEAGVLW
Nonstructural protein 1, sequence (Q194T2 whole entry): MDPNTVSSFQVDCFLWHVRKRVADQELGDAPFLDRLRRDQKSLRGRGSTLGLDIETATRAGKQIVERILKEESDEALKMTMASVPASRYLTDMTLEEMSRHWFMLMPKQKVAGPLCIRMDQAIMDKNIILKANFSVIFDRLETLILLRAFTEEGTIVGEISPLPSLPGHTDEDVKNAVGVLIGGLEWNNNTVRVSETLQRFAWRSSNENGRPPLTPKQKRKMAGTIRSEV

O=C(c1ccc2c(c1)OCCO2)C1CCN(S(=O)(=O)c2ccc(F)cc2)CC1
AC50 [1]: > 52 µM (inactive) | AC50 [2]: > 52 µM (inactive)

CC(=O)n1cc(C=C2C(=O)NC(=O)NC2=O)c2ccccc21
IC50 [3]: 42.8 µM (active)

O=C(Nc1ccccc1C(F)(F)F)N1CCN(c2ccc3nnc(-c4ccc(F)cc4)n3n2)CC1
CC50 [4]: > 25 µM (active)

COc1cc(OC)c(NC(=O)C(=O)CC(=O)c2ccc(C)cc2C)cc1Cl
CC50 [4]: 9.4 µM (active)

O=C(Nc1cccc2ccccc12)OC1C=CS(=O)(=O)C1 (stereo not drawn)
IC50 [5]: > 80 µM (inactive)

Cc1ccc(-c2[nH]c3ccccc3c2SCCNC(=O)c2ccc(S(=O)(=O)N3CCOCC3)cc2)cc1
EC50 [6]: 112 µM (active) | EC50 [7]: 152 µM (active)

O=C(/C=C/c1ccc([N+](=O)[O-])cc1)/C=C/c1ccco1
CC50 [8]: 100 µM (active)

COc1cccc(/C=C2/C(=O)NN(c3ccccc3)C2=O)c1
IC50 [3]: 45.8 µM (active)

Cc1ccc(C)c(CSc2nc(O)c3c[nH]nc3n2)c1
IC50 [5]: > 80 µM (inactive)

CN1C(=O)/C(=C2\SC(N)=NC2=O)c2ccccc21
EC50 [6]: 33.2 µM (active) | EC50 [7]: 44.1 µM (active)

CC#CC(=O)N1CCC(n2nccc2NC(=O)c2ccc3c(c2)OCO3)CC1
IC50 [5]: > 80 µM (inactive)

O=C(CN1C(=O)COc2ccccc21)Nc1ccc(F)cc1
EC50 [9]: 13.8 µM (active) | IC50 [10]: 3.73 µM (active) | EC50 [11]: 113 µM (active) | EC50 [12]: 11.9 µM (active)

CN1CCCC(OC(=O)c2ccc3c(c2)OCCO3)C1 (stereo not drawn)
IC50 [13]: > 50 µM (not active)

COCCCNc1nc2c([nH]1)c(=O)[nH]c(=O)n2C
IC50 [13]: > 50 µM (not active)

CCCNCC1COc2ccccc2O1 (stereo not drawn)
IC50 [13]: 4.1 µM (active)

COc1ccc(-c2cc3nc(CCl)nc(O)c3s2)cc1
AC50 [14]: 8.71 µM (active) | EC50 [15]: 11 µM (active) | CC50 [16]: 6.88 µM (active) | AC50 [1]: 16.8 µM (active) | AC50 [17]: 6.33 µM (active) | EC50 [18]: 11.8 µM (active) | AC50 [2]: 17.1 µM (active)

Cc1cccc2sc(NC(=O)C3CCN(S(=O)(=O)c4cc([N+](=O)[O-])ccc4Cl)CC3)nc12
IC50 [19]: 3.44 µM (active) | EC50 [20]: > 30 µM (not active) | EC50 [21]: 630 nM (active)

CCOC(=O)CN1CC23C=CC(O2)C(C(=O)Nc2cc(OC)ccc2OC)C3C1=O (stereo not drawn)
IC50 [13]: > 50 µM (not active)

CCn1cc(/C=C(\NC(=O)c2ccccc2F)C(=O)NCCCn2ccnc2)c2ccccc21
IC50 [22]: 14.5 µM (active)

Cc1ccc(-c2cc(C(=O)N3CCN(c4ccc(O)cc4)CC3)c3ccccc3n2)cc1
CC50 [8]: 100 µM (active) | IC50 [23]: 88 µM (active) | AC50 [24]: 6.6 µM (active)

O=C(Cn1ncc2c3ccccc3n(Cc3ccccc3)c2c1=O)NCCN1CCOCC1
IC50 [22]: 11.2 µM (active)

O=C(OCc1nc(O)c2sccc2n1)c1ccc(Cl)s1
IC50 [22]: 12.6 µM (active)

COC1C(OC(=O)/C=C/C=C/C=C/C=C/C(=O)O)CCC2(CO2)C1C1(C)OC1CC=C(C)C (stereo not drawn)
GI50 [25]: 16.1 µM (inactive) | GI50 [26]: 13.2 µM (inactive)

O=C(C[C@@H]1C[C@H]2c3cc(NC(=O)Nc4ccccc4)ccc3O[C@H]2[C@H](CO)O1)NCc1cccnc1
AC50 [27]: 1.64 µM (active)

N#C[C@@H]1[C@H](c2ccc(C#Cc3cccc(F)c3)cc2)[C@@H](CO)N1C(=O)C1CCCC1
AC50 [14]: 8.4 µM (active) | AC50 [17]: 16.5 µM (active) | AC50 [2]: 27.1 µM (active)

CCN(CC)c1ccc(/C=N/NC(=O)c2cccc(S(=O)(=O)Nc3ccccc3OC)c2)c(O)c1
AC50 [28]: 237 nM (active) | IC50 [5]: > 80 µM (inactive) | EC50 [29]: 85.3 µM (active) | EC50 [30]: 2.89 µM (active)

O=c1cc(-c2ccccc2)c2c(O)cc(O)cc2o1
IC50 [22]: 13.7 µM (active)

CN(C)CCCN1c2ccc(O)cc2Sc2ccc(Cl)cc21 [7-HYDROXYCHLORPROMAZINE]
CC50 [8]: 84.5 µM (active) | AC50 [31]: 631 nM (inconclusive) | IC50 [23]: 11.6 µM (active) | AC50 [32]: 794 nM (inconclusive)
